Results reported in patent US20260060961A1, “SUBSTITUTED HETEROCYCLES AS RAS INHIBITORS” (Jazz Pharmaceuticals Ireland Limited, priority 2022, published 2026).

Target: Recombinant human KRAS protein containing the G12C amino acid substitution (Homo sapiens (Human), UniProt P01116, G12C)
Experiment: HTRF nucleotide exchange assay, KRAS G12C
Assay type: biochemical
Settings: 180 minute incubation with compound at room temperature; at least two independent replicates; read-out: KRAS G12C HTRF NEA IC50
Method: The capacity of compounds to bind KRAS G12C and KRAS wildtype was quantified using a HTRF nucleotide exchange assay. Recombinant human KRAS protein (5 nM; aa1-188 KRAS WT or KRAS containing the G12C amino acid substitution, an N-terminal 6×His-tag and leader sequence), and 2 nM Europium-labeled anti-6×His antibody were mixed in assay buffer (10 mM HEPES pH7.3, 75 mM NaCl, 5 mM MgCl2, 0.05% BSA, 0.0025% NP-40 and 100 mM KF) with various concentrations of compound in a 384-well plate and a volume of 5 μL. After a 180 minute incubation at room temperature, 5 μl of 200 nM EDA-GTP-DY647P1 diluted in assay buffer was added to the plate. Following 30-minute incubation at room temperature, time-resolved fluorescence was measured on a PerkinElmer Envision plate reader. DMSO (0.3%) and unlabeled GDP (1 μM) or equivalent tool compound were used to generate the Max and Min assay signals, respectively. Data was analysed using a four-parameter logistic model to calculate IC50 values, with at least two independent replicates were performed for each compound.

Chain of Recombinant human KRAS protein containing the G12C amino acid substitution (P01116 other isoform, or with tags, fused parts or gaps G12C): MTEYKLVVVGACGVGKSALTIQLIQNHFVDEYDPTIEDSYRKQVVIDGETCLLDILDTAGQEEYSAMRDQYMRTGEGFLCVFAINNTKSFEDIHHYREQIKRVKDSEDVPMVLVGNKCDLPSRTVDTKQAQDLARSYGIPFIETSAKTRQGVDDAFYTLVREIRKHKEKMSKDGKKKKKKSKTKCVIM

Compound | IC50 [µM]
C=CC(=O)N1CC2(CC(c3nc(-c4ccc5c(cnn5C)c4)c(-c4cc(C#N)cc5[nH]ncc45)n3C)C2)C1 [Example 40, 4-[3-methyl-5-(1-methylindazol-5-yl)-2-(2-prop-2-enoyl-2-azaspiro[3.3]heptan-6-yl)imidazol-4-yl]-1H-indazole-6-carbonitrile] | 1 to 10
C=CC(=O)N1CC2(CC(c3nc(-c4cnn(CCOC)c4)c(-c4c(C)ccc5[nH]ncc45)n3C)C2)C1 [Example 15, 1-[6-[4-[1-(2-methoxyethyl)pyrazol-4-yl]-1-methyl-5-(5-methyl-1H-indazol-4-yl)imidazol-2-yl]-2-azaspiro[3.3]heptan-2-yl]prop-2-en-1-one] | ≥ 10
C=CC(=O)N1CC2(CC(c3nc(-c4ccc5c(cnn5C)c4)c(-c4c(C)ccc5[nH]ncc45)n3CC)C2)C1 [Example 24, 1-[6-[1-ethyl-4-(1-methylindazol-5-yl)-5-(5-methyl-1H-indazol-4-yl)imidazol-2-yl]-2-azaspiro[3.3]heptan-2-yl]prop-2-en-1-one] | ≤ 1
C=CC(=O)N1CC2(CC(c3nc(-c4ccc5c(cnn5C)c4)c(-c4cc(O)cc5ccccc45)n3CC)C2)C1 [Example 32, 1-[6-[1-ethyl-5-(3-hydroxy-1-naphthyl)-4-(1-methylindazol-5-yl)imidazol-2-yl]-2-azaspiro[3.3]heptan-2-yl]prop-2-en-1-one] | ≤ 1
C=CC(=O)N1CC2(CC(c3nc(-c4ccc5c(cnn5C)c4)c(-c4cccc5sc(N)c(C#N)c45)n3C)C2)C1 [Example 36, 2-amino-4-[3-methyl-5-(1-methylindazol-5-yl)-2-(2-prop-2-enoyl-2-azaspiro[3.3]heptan-6-yl)imidazol-4-yl]benzothiophene-3-carbonitrile] | 1 to 10
C=CC(=O)N1CC2(CC(c3nc(-c4ccc5c(cnn5C)c4)c(-c4cc(O)cc5ccccc45)n3C)C2)C1 [Example 26, 1-[6-[5-(3-hydroxy-1-naphthyl)-1-methyl-4-(1-methylindazol-5-yl)imidazol-2-yl]-2-azaspiro[3.3]heptan-2-yl]prop-2-en-1-one] | ≤ 1
C=CC(=O)N1CC2(CC(c3nc(-c4ccc(-n5cnc(C6CC6)c5)cc4)c(-c4c(C)ccc5[nH]ncc45)n3C)C2)C1 [Example 8, 1-[6-[4-[4-(4-cyclopropylimidazol-1-yl)phenyl]-1-methyl-5-(5-methyl-1H-indazol-4-yl)imidazol-2-yl]-2-azaspiro[3.3]heptan-2-yl]prop-2-en-1-one] | 1 to 10
C=CC(=O)N1CC2(CC(c3nc(-c4ccc(N5CCOCC5)cc4)c(-c4cc(O)cc5ccccc45)n3C)C2)C1 [Example 27, 1-[6-[5-(3-hydroxy-1-naphthyl)-1-methyl-4-(4-morpholinophenyl)imidazol-2-yl]-2-azaspiro[3.3]heptan-2-yl]prop-2-en-1-one] | ≤ 1
C=CC(=O)N1CC2(CC(c3nc(-c4ccc(N5CCOCC5)cc4)c(-c4cc(O)cc5ccccc45)n3CC)C2)C1 [Example 33, 1-[6-[1-ethyl-5-(3-hydroxy-1-naphthyl)-4-(4-morpholinophenyl)imidazol-2-yl]-2-azaspiro[3.3]heptan-2-yl]prop-2-en-1-one] | ≤ 1
C=CC(=O)N1CC2(CC(c3nc(-c4ccc5c(cnn5C)c4)c(-c4c(C)c(C)cc5[nH]ncc45)n3C)C2)C1 [Example 38, 1-[6-[5-(5,6-dimethyl-1H-indazol-4-yl)-1-methyl-4-(1-methylindazol-5-yl)imidazol-2-yl]-2-azaspiro[3.3]heptan-2-yl]prop-2-en-1-one] | ≤ 1
C=CC(=O)N1CC2(CC(c3nc(-c4ccc5nn(C)cc5c4)c(-c4cc(O)cc5ccccc45)n3C)C2)C1 [Example 28, 1-[6-[5-(3-hydroxy-1-naphthyl)-1-methyl-4-(2-methylindazol-5-yl)imidazol-2-yl]-2-azaspiro[3.3]heptan-2-yl]prop-2-en-1-one] | ≤ 1
C=CC(=O)N1CC2(CC(c3nc(-c4cnn(CCN5CCOCC5)c4)c(-c4c(C)ccc5[nH]ncc45)n3C)C2)C1 [Example 10, 1-[6-[1-methyl-5-(5-methyl-1H-indazol-4-yl)-4-[1-(2-morpholinoethyl)pyrazol-4-yl]imidazol-2-yl]-2-azaspiro[3.3]heptan-2-yl]prop-2-en-1-one] | ≥ 10
C=CC(=O)N1CC2(CC(c3nc(-c4ccc(CN5CCN(C)CC5)cc4)c(-c4cc(O)cc5ccccc45)n3C)C2)C1 [Example 31, 1-[6-[5-(3-hydroxy-1-naphthyl)-1-methyl-4-[4-[(4-methylpiperazin-1-yl)methyl]phenyl]imidazol-2-yl]-2-azaspiro[3.3]heptan-2-yl]prop-2-en-1-one] | ≤ 1
C=CC(=O)N1CC2(CC(c3nc(-c4ccc(CN5CCOCC5)cc4)c(-c4cc(O)cc5ccccc45)n3C)C2)C1 [Example 30, 1-[6-[5-(3-hydroxy-1-naphthyl)-1-methyl-4-[4-(morpholinomethyl)phenyl]imidazol-2-yl]-2-azaspiro[3.3]heptan-2-yl]prop-2-en-1-one] | ≤ 1

More lines, now with the values ahead:

IC50 [µM] | Compound
1 to 10 | C=CC(=O)N1CC2(CC(c3nc(-c4ccc5cnn(C)c5c4)c(-c4c(C)ccc5[nH]ncc45)n3C)C2)C1 [Example 7, 1-[6-[1-methyl-4-(1-methylindazol-6-yl)-5-(5-methyl-1H-indazol-4-yl)imidazol-2-yl]-2-azaspiro[3.3]heptan-2-yl]prop-2-en-1-one]
≥ 10 | C=CC(=O)N1CC2(CC(c3nc(-c4cccnc4)c(-c4c(C)ccc5[nH]ncc45)n3C)C2)C1 [Example 3, 1-[6-[1-methyl-5-(5-methyl-1H-indazol-4-yl)-4-(3-pyridyl)imidazol-2-yl]-2-azaspiro[3.3]heptan-2-yl]prop-2-en-1-one]
≥ 10 | C=CC(=O)N1CC2(CC(c3nc(-c4cnn(CC)c4)c(-c4c(C)ccc5[nH]ncc45)n3C)C2)C1 [Example 13, 1-[6-[4-(1-ethylpyrazol-4-yl)-1-methyl-5-(5-methyl-1H-indazol-4-yl)imidazol-2-yl]-2-azaspiro[3.3]heptan-2-yl]prop-2-en-1-one]
1 to 10 | C=CC(=O)N1CC2(CC(c3nc(-c4ccc5ocnc5c4)c(-c4c(C)ccc5[nH]ncc45)n3C)C2)C1 [Example 17, 1-[6-[4-(1,3-benzoxazol-5-yl)-1-methyl-5-(5-methyl-1H-indazol-4-yl)imidazol-2-yl]-2-azaspiro[3.3]heptan-2-yl]prop-2-en-1-one]
1 to 10 | C=CC(=O)N1CC2(CC(c3nc(-c4cccc(N5CCOCC5)c4)c(-c4c(C)ccc5[nH]ncc45)n3C)C2)C1 [Example 6, 1-[6-[1-methyl-5-(5-methyl-1H-indazol-4-yl)-4-(3-morpholinophenyl)imidazol-2-yl]-2-azaspiro[3.3]heptan-2-yl]prop-2-en-1-one]
1 to 10 | C=CC(=O)N1CC2(CC(c3nc(-c4ccc5c(c4)c(C)nn5C)c(-c4c(C)ccc5[nH]ncc45)n3C)C2)C1 [Example 16, 1-[6-[4-(1,3-dimethylindazol-5-yl)-1-methyl-5-(5-methyl-1H-indazol-4-yl)imidazol-2-yl]-2-azaspiro[3.3]heptan-2-yl]prop-2-en-1-one]
≤ 1 | C=CC(=O)N1CC2(CC(c3nc(-c4ccc5c(c4)OCCN5C)c(-c4c(C)ccc5[nH]ncc45)n3C)C2)C1 [Example 18, 1-[6-[1-methyl-4-(4-methyl-2,3-dihydro-1,4-benzoxazin-7-yl)-5-(5-methyl-1H-indazol-4-yl)imidazol-2-yl]-2-azaspiro[3.3]heptan-2-yl]prop-2-en-1-one]
